Results on 30 compounds are retold here after PubChem BioAssay AID602466 (Sanford-Burnham Center for Chemical Genomics, 2012).

The source made the active and inactive calls. How the calls were made is not given here.

Sequence of Neurotensin receptor type 1 (Homo sapiens) (P30989 whole entry, looked up): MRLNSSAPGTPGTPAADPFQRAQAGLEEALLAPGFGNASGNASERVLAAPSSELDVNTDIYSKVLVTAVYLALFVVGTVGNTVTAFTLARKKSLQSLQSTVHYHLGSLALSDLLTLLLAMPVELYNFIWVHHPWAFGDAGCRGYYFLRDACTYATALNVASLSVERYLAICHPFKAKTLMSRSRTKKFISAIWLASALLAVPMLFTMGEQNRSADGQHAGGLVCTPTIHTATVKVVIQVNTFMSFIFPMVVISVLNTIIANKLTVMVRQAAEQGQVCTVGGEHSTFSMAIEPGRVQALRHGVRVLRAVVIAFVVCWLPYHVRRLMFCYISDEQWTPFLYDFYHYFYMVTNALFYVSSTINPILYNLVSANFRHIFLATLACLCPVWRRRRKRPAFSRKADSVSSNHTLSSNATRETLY

The assay concerns the target Neurotensin receptor type 1 (Homo sapiens) (UniProt P30989). Nature of the assay: NTR1 agonist calcium signaling, SAR follow-up, cell-based, fluorescence, calcium flux, single concentration (AID 602466). The following applies: NTR1-expressing cells, at 30 µM (top of the series).
For `COc1ccc(-c2nc(C(=O)N[C@@H](CC(C)C)C(=O)O)cn2-c2ccnc3cc(Cl)ccc23)c(OC)c1`, the activation was 35.9% (inactive).

On to `COc1cc2c3nnc(-c4ccc(F)cc4)c-3cn(Cc3ccccc3)c2cc1OC`, for which the activation is 110%.

For the compound `COc1cc2c3nnc(-c4ccc(Cl)cc4)c-3cn(Cc3ccc(F)cc3)c2cc1OC`, the activation was 187%.

With `Cc1cccc(C)c1-c1nc(C(=O)N[C@@H](CC(C)C)C(=O)O)cn1-c1ccnc2cc(Cl)ccc12`, the activation is 37.7%.

Turning to `Cc1ccc(Cn2cc3c(-c4ccc(F)cc4)nnc-3c3ccccc32)cc1`, the activation was 9.46% (inactive).

On to `COc1cc2c3nnc(-c4ccc(C)cc4)c-3cn(Cc3ccc(F)cc3)c2cc1OC`, for which the activation is 90.8%.

With `COc1cc2c3nnc(-c4ccc(F)cc4)c-3cn(Cc3ccc(C)cc3)c2cc1OC`, the activation is 115%.

For the compound `COc1ccc2c(c1)c1nnc(-c3ccc(F)cc3)c-1cn2Cc1ccccc1`, the activation is 10.2% (inactive).

Consider `COc1cc2c3nnc(-c4ccccc4)c-3cn(Cc3ccccc3)c2cc1OC`, for which the activation is 55%.

Take `COc1cc2c3nnc(-c4ccc(F)cc4)c-3cn(Cc3ccc(Cl)cc3)c2cc1OC`: the activation is 67.8%.

With `COc1cc2nc(C)nc(N3CCN(c4ccccc4OC)CC3)c2cc1OC`, the activation is 17.5% (inactive).

Consider `COc1cc2c3nnc(-c4ccc(Cl)cc4)c-3cn(Cc3ccccc3)c2cc1OC`, for which the activation is 99.2%.

On to `COc1cc2nc(-c3ccccc3)nc(N3CCN(c4ccccc4OC)CC3)c2cc1OC`, for which the activation is 60.6%.

In the case of `COc1cccc(OC)c1-c1nc(C(=O)NC2(C(=O)O)C3CC4CC(C3)CC2C4)cn1-c1ccnc2cc(Cl)ccc12` (stereo not given), the activation was 12.4% (inactive).

As to `COc1cc2c3nnc(-c4ccc(F)cc4)c-3cn(Cc3cccc(C)c3)c2cc1OC`, the activation was 191%.

With `COc1ccccc1-c1cc(C(=O)N[C@@H](CC(C)C)C(=O)O)nn1-c1ccnc2cc(Cl)ccc12`, the activation is 11.9%.

As for `COc1cc2c3nnc(-c4ccc(C)c(C)c4)c-3cn(Cc3ccc(F)cc3)c2cc1OC`, the activation is 38.2% (inactive).

In the case of `COc1cc2c3nnc(-c4ccc(C)c(C)c4)c-3cn(Cc3ccc(C)cc3)c2cc1OC`, the activation was 131%.

For `COc1cccc(OC)c1-c1cc(C(=O)N[C@@H](CC(C)C)C(=O)O)nn1-c1ccnc2cc(Cl)ccc12`, the activation is 48.7%.

Turning to `COc1cc2nc(C3CCC3)nc(N3CCN(c4ccccc4C)CC3)c2cc1OC`, the activation is 9.85% (inactive).

As for `COc1cc2c3nnc(-c4ccc(F)cc4)c-3cn(Cc3ccccc3N(C)C)c2cc1OC`, the activation is 37.2% (inactive).

Regarding `COc1cccc(OC)c1-c1nc(C(=O)N[C@@H](CC(C)C)C(=O)O)cn1-c1cccc2ccccc12`, the activation is 110%.

Regarding `COc1ccc2c(c1)c1nnc(-c3ccc(F)cc3)c-1cn2Cc1ccc(F)cc1`, the activation is 39.5% (inactive).

As to `COc1cc2c3nnc(-c4ccc(C)cc4)c-3cn(Cc3ccc(C)cc3)c2cc1OC`, the activation was 132%.

With `Cc1ccc(Cn2cc3c(-c4ccc(F)cc4)nnc-3c3cc4c(cc32)OCO4)cc1`, the activation was 13.4% (inactive).

For the compound `COc1cc2c3nnc(-c4ccc(F)cc4)c-3cn(Cc3ccc(OC(F)(F)F)cc3)c2cc1OC`, the activation was 2.56% (inactive).

For the compound `COc1cccc(OC)c1-c1nc(C(=O)N[C@@H](CC(C)C)C(=O)O)cn1-c1ccnc2cc(Cl)ccc12`, the activation was 102%.

With `COc1ccc(Cn2cc3c(-c4ccc(F)cc4)nnc-3c3cc(OC)c(OC)cc32)cc1`, the activation was 56.6%.

Regarding `COc1ccc(-c2nnc3c4cc(OC)c(OC)cc4n(Cc4ccc(C)cc4)cc2-3)cc1`, the activation was 7.03% (inactive).

For `COc1cc2c3nnc(-c4ccc(F)cc4)c-3cn(Cc3ccc(F)cc3)c2cc1OC`, the activation was 95.3%.
